# According to patent publication US20250230193A1, “CYCLIC COMPOUND HAVING SELECTIVE KRAS INHIBITORY EFFECT ON HRAS AND NRAS” (CHUGAI SEIYAKU KABUSHIKI KAISHA, priority 2022, published 2025):
# Where a SMILES comes first, the peptide text is derived from it. Bridges are numbered along the chain shown (N, C = ends). [ ]: non-standard residue; d: D form. The star is where a group is joined. hPhe(3-Cl-4-CF3) = N[C@@H](CCc1ccc(C(F)(F)F)c(Cl)c1)C(=O)O; NPrPhe(4-CF3) = CCCN[C@@H](Cc1ccc(C(F)(F)F)cc1)C(=O)O; NMePhe(4-Me) = CN[C@@H](Cc1ccc(C)cc1)C(=O)O; NMeGly(cPent) = CN[C@H](C(=O)O)C1CCCC1; NMeD = CN[C@@H](CC(=O)O)C(=O)O; NMeL = CN[C@@H](CC(C)C)C(=O)O; Morpholide = C1CN(*)CCO1; Ac5c = NC1(C(=O)O)CCCC1; Aze = O=C(O)[C@@H]1CCN1; Sar = CNCC(=O)O
# Columns and labels:
# [1] = target: GDP-bound NRAS wild-type protein (Homo sapiens, UniProt P01111); assay: Binding to NRAS by surface plasmon resonance (SPR), Single Cycle Kinetics; details: SPR
# [2] = target: GDP-bound HRAS wild-type protein (Homo sapiens, UniProt P01112); assay: Binding to HRAS by surface plasmon resonance (SPR), Single Cycle Kinetics; details: SPR
# [3] = KD ratio, GDP-bound NRAS wild-type vs GDP-bound KRAS wild-type
# [4] = KD ratio, GDP-bound HRAS wild-type vs GDP-bound KRAS wild-type
# Sequence of GDP-bound HRAS wild-type protein (P01112 whole entry): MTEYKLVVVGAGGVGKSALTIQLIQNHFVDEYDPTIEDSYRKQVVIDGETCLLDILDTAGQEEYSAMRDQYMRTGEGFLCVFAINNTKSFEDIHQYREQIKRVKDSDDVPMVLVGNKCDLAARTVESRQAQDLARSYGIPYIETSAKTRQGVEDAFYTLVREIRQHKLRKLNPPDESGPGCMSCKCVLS
# Sequence of GDP-bound NRAS wild-type protein (P01111 whole entry): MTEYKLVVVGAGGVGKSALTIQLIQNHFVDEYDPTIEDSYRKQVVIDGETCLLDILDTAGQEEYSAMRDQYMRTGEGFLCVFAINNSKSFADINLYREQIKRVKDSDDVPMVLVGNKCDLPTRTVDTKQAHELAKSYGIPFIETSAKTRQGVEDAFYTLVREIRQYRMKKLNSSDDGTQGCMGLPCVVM
structure (smiles),measurement,setting,value
CCOC[C@H]1C(=O)N[C@@H]([C@@H](C)CC)C(=O)N(C2CC2)CC(=O)N(C)[C@H]2C/C=C\CCN(C2=O)[C@@H](CC2CCCCC2)C(=O)N(C)CC(=O)N[C@@H](CCc2ccc(C(F)(F)F)c(OC)c2)C(=O)N2C[C@H](OCC)C[C@H]2C(=O)N(C)C2(CCC2)C(=O)N(C)[C@@H](C2CCCC2)C(=O)N(C)[C@H](C(=O)N(C)C)CC(=O)N1C [PP2342],NRAS/KRAS (ratio of KD value with respect to NRAS to KD value with respect to KRAS),[1]; GDP-bound NRAS wild-type vs GDP-bound KRAS wild-type,A (a compound having 10 or more and less than 20 is denoted as A)
same,HRAS/KRAS (ratio of KD value with respect to HRAS to KD value with respect to KRAS),[2]; GDP-bound HRAS wild-type vs GDP-bound KRAS wild-type,A (a compound having 10 or more and less than 20 is denoted as A)
CCO[C@@H]1C[C@H]2C(=O)NC3(CCC3)C(=O)N(C)[C@@H](C3CCCC3)C(=O)N(C)[C@H](C(=O)N(C)C)CC(=O)N(C)[C@@H](CC3CC3)C(=O)N[C@@H]([C@@H](C)CC)C(=O)N(C)CC(=O)N(C)[C@H]3CCCCCN(C3=O)[C@@H](Cc3ccc(C(F)(F)F)cc3)C(=O)N(C)CC(=O)N[C@@H](CCc3cc(F)c(C(F)(F)F)c(F)c3)C(=O)N2C1 [PP0667],NRAS/KRAS (ratio of KD value with respect to GDP-bound NRAS wild-type protein to KD value with respect to KRAS),[1]; KD ratio NRAS/KRAS,B (a compound having 3 or more and less than 10 is denoted as B)
same,HRAS/KRAS (ratio of KD value with respect to GDP-bound HRAS wild-type protein to KD value with respect to KRAS),[2]; KD ratio HRAS/KRAS,B (a compound having 3 or more and less than 10 is denoted as B)
CCO[C@@H]1C[C@H]2C(=O)NC3(CCCC3)C(=O)N(C)[C@@H](C3CCCC3)C(=O)N(C)[C@H](C(=O)N(C)C)CC(=O)N(C)[C@@H](CC(C)C)C(=O)N[C@@H]([C@@H](C)CC)C(=O)N(C)CC(=O)N(C)[C@H]3CC(C)=CCN(C3=O)[C@@H](Cc3ccc(C(F)(F)F)cc3)C(=O)N(C)CC(=O)N[C@@H](CCc3cc(F)c(C(F)(F)F)c(F)c3)C(=O)N2C1 [PP1031],NRAS/KRAS (ratio of KD value with respect to NRAS to KD value with respect to KRAS),[1]; [3],C (A compound having a KD ratio of 0.1 or more and less than 3 is denoted as C)
same,HRAS/KRAS (ratio of KD value with respect to HRAS to KD value with respect to KRAS),[2]; [4],C (A compound having a KD ratio of 0.1 or more and less than 3 is denoted as C)
CC[C@H](C)[C@@H]1NC(=O)[C@H](CC(C)C)N(C)C(=O)C[C@@H](C(=O)N2CCOCC2)N(C)C(=O)[C@H](C2CCCC2)N(C)C(=O)C2(CCCC2)NC(=O)[C@@H]2CCCN2C(=O)[C@H](CCc2ccc(C(F)(F)F)c(Cl)c2)NC(=O)CN(C)C(=O)[C@H](Cc2ccc(C)cc2)N(C)C(=O)CN(C)C(=O)CN(C)C1=O [PP0018] ([NMeL]I[Sar][Sar][NMePhe(4-Me)][Sar][hPhe(3-Cl-4-CF3)]P[Ac5c][NMeGly(cPent)][NMeD]-Morpholide; lactam N-11),NRAS/KRAS (ratio of KD for GDP-bound NRAS wild-type to KD for KRAS),[1]; KD ratio NRAS/KRAS,C (A compound having a KD ratio of 0.1 or more and less than 3 is denoted as C)
same,HRAS/KRAS (ratio of KD for GDP-bound HRAS wild-type to KD for KRAS),[2]; KD ratio HRAS/KRAS,C (A compound having a KD ratio of 0.1 or more and less than 3 is denoted as C)
CC[C@H](C)[C@@H]1NC(=O)[C@H](CC(C)C)N(C)C(=O)C[C@@H](C(=O)N2CCOCC2)N(C)C(=O)[C@H](C2CCCC2)N(C)C(=O)C(C)(C)NC(=O)[C@@H]2CCCN2C(=O)[C@H](CCc2cc(F)c(C(F)(F)F)c(F)c2)NC(=O)CN(C)C(=O)[C@H](Cc2ccc(C(F)(F)F)cc2)N2CCCC[C@@H](C2=O)N(C)C(=O)CN(C)C1=O [PP0565],NRAS/KRAS (ratio of KD value with respect to GDP-bound NRAS wild-type protein to KD value with respect to KRAS),[1]; KD ratio NRAS/KRAS,C (A compound having a KD ratio of 0.1 or more and less than 3 is denoted as C)
same,HRAS/KRAS (ratio of KD value with respect to GDP-bound HRAS wild-type protein to KD value with respect to KRAS),[2]; KD ratio HRAS/KRAS,B (a compound having 3 or more and less than 10 is denoted as B)
CCC[C@H]1C(=O)N[C@@H]([C@@H](C)CC)C(=O)N(C)CC(=O)N(C)[C@H]2C/C=C\CCN(C2=O)[C@@H](Cc2ccc(C)cc2)C(=O)N(C)CC(=O)N[C@@H](CCc2ccc(C(F)(F)F)c(OC)c2)C(=O)N2C[C@H](C)C[C@H]2C(=O)NC2(CC(C)(C)C2)C(=O)N(C)[C@@H](C2CCCC2)C(=O)N(C)[C@H](C(=O)N(C)C)CC(=O)N1C [PP1890],NRAS/KRAS (ratio of KD value for NRAS to KD value for KRAS),[1]; [3],A (a compound having 10 or more and less than 20 is denoted as A)
same,HRAS/KRAS (ratio of KD value for HRAS to KD value for KRAS),[2]; [4],B (a compound having 3 or more and less than 10 is denoted as B)
CCCN1C(=O)[C@@H]2CCN2C(=O)CN(C)C(=O)[C@H]([C@@H](C)CC)NC(=O)[C@H](CC(C)C)N(C)C(=O)C[C@@H](C(=O)N(C)C)N(C)C(=O)[C@H](C2CCCC2)N(C)C(=O)C2(CCCC2)NC(=O)[C@@H]2CCCN2C(=O)[C@H](CCc2ccc(C(F)(F)F)c(Cl)c2)NC(=O)CN(C)C(=O)[C@@H]1Cc1ccc(C(F)(F)F)cc1 [PP0440] ([NMeL]I[Sar][Aze][NPrPhe(4-CF3)][Sar][hPhe(3-Cl-4-CF3)]P[Ac5c][NMeGly(cPent)][NMeD]-NMe2; lactam N-11),NRAS/KRAS (ratio of KD value with respect to GDP-bound NRAS wild-type protein to KD value with respect to KRAS),[1]; KD ratio NRAS/KRAS,C (A compound having a KD ratio of 0.1 or more and less than 3 is denoted as C)
same,HRAS/KRAS (ratio of KD value with respect to GDP-bound HRAS wild-type protein to KD value with respect to KRAS),[2]; KD ratio HRAS/KRAS,B (a compound having 3 or more and less than 10 is denoted as B)
